Experiment [1] deals with T1, baculovirus-expressed ALK (Homo sapiens, UniProt Q9UM73).
T1 construct: host or cells: baculovirus expression system
The experiment in a line: ALK Kinase Assay (ELISA-type, time-resolved fluorescence). It counts as biochemical. The procedure, abridged: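 Substrate coating: phospholipase C-γ, 10 μg/mL in TBS. Kinase step: 30 ng/ml ALK, 15 min, 37° C. Detection and analysis: Eu-N1 PT66 antibody, with IC50 fitted as a sigmoidal variable-slope dose-response curve.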
For orientation: In an ELISA, binding on a coated surface is turned into a signal by an enzyme label.

In experiment [2] the target is T2, c-Met (cytoplasmic domain) (Homo sapiens, UniProt P08581).
T2 construct: 10 ng/mL c-Met (cytoplasmic domain, Invitrogen Corporation #PV3143); purchased Invitrogen Corporation PV3143
The experiment in a line: c-Met Kinase Assay (same methods as for ALK, with modifications). It counts as biochemical. The procedure, abridged: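 This plate-based kinase format uses immobilized phospholipase C-γ as substrate, phosphorylated by c-Met cytoplasmic domain (10 ng/mL) at 37° C for 15 minutes.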

Setting [3] is: 1 μM ATP (Km level), 30 ng/ml ALK, 37° C., 15 minutes, read-out: ALK Activity (ALK kinase inhibition, IC50 class).
[4] abbreviates: 1 μM ATP (Km level), 10 ng/mL c-Met, read-out: cMet Activity (c-Met kinase inhibition, IC50 class).
[5] abbreviates: 1 μM ATP (Km level), read-out: ALK Activity (ALK Kinase Inhibition, IC50).
Setting [6] is: 1 μM ATP (Km level), read-out: cMet Activity (c-Met Kinase Inhibition, IC50).
Where [7] appears, read: ALK kinase inhibition, 1 μM ATP (Km level), read-out: ALK Activity.
Where [8] appears, read: c-Met kinase inhibition, 1 μM ATP (Km level), read-out: cMet Activity.
Where [9] appears, read: ALK kinase inhibition, 1 μM ATP, read-out: ALK Activity.
The mark [10] stands for this setting: c-Met kinase inhibition, 1 μM ATP, read-out: cMet Activity.

Where two headings read alike, the source gives them in different places. Where only a bound is given, the exact number is not on record here.

T1 sequence (Q9UM73 19-1620): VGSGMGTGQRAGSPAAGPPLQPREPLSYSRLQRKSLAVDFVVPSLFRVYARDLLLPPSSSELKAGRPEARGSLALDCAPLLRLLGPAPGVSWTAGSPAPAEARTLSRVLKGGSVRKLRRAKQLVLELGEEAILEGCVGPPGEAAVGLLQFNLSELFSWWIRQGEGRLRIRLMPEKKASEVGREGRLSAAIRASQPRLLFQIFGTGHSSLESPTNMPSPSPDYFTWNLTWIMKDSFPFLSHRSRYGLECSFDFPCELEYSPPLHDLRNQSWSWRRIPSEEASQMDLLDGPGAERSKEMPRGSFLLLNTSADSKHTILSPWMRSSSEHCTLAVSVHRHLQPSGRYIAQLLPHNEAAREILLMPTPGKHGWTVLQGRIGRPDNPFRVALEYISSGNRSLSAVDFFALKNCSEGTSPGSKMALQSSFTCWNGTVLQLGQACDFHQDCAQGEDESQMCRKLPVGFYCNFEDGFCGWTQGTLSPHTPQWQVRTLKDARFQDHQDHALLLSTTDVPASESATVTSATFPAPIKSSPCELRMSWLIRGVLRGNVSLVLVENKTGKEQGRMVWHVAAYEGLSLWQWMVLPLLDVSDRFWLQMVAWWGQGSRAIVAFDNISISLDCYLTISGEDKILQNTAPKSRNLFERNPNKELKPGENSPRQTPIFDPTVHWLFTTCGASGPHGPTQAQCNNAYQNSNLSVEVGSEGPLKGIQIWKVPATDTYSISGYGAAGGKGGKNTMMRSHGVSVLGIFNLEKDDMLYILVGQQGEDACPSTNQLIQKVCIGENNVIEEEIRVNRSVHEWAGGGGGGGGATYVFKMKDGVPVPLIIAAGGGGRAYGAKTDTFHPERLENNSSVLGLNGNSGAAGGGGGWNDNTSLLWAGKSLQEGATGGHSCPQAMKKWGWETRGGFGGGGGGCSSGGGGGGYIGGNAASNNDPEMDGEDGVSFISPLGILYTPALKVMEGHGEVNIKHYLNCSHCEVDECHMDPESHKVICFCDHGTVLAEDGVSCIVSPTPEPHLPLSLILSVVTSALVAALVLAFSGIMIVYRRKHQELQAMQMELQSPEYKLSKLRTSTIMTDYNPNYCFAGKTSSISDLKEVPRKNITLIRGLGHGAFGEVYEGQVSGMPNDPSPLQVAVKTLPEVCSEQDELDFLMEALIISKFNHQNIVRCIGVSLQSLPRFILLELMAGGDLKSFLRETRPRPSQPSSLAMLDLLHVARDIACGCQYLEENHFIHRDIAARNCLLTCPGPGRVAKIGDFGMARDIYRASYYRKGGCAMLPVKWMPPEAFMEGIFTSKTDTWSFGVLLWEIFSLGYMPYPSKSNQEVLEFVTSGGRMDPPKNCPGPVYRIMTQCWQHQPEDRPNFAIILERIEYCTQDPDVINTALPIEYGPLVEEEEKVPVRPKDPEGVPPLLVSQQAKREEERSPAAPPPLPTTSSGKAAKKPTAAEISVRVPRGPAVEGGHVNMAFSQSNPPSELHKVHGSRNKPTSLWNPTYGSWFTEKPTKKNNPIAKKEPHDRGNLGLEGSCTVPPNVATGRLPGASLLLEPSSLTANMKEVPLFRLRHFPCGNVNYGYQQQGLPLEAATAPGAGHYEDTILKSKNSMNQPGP
T2 sequence (P08581 956-1390 limits assumed): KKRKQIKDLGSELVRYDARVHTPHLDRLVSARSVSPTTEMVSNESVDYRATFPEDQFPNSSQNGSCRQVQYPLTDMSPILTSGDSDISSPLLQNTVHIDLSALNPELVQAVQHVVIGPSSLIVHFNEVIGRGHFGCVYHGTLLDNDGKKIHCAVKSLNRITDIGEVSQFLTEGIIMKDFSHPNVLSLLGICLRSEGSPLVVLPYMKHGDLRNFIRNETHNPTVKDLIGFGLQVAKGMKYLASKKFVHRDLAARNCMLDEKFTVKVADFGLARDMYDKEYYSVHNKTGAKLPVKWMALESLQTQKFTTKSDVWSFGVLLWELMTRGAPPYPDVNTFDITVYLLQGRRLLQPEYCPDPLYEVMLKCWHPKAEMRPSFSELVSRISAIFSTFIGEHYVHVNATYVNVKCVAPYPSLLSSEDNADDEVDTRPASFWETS

As to `CCN1C(=O)C(N)CCc2c1ccc(Nc1ncc(Cl)c(N[C@@H]3CCCC[C@H]3NS(C)(=O)=O)n1)c2OC` (stereo partly drawn) [Example 1338, N-{(1R,2R)-2-[2-(3-Amino-1-ethyl-6-methoxy-2-oxo-2,3,4,5-tetrahydro-1H-benzo[b]azepin-7-ylamino)-5-chloro-pyrimidin-4-ylamino]-cyclohexyl}-methanesulfonamide], the results for the IC50 in experiment [1] (setting [3]) and in experiment [2] (setting [4]) were 100 to 1000 nM and more than 10000 nM, respectively.

In the case of `COCCN(C)C1CCc2ccc(Nc3ncc(Cl)c(N[C@H]4[C@@H](C(N)=O)[C@@H]5C=C[C@H]4C5)n3)c(OC)c2CC1` (single isomer, unassigned) [Example 700], the figures for the IC50 in experiment [1] (setting [5]) and in experiment [2] (setting [6]) were less than 100 nM and more than 10000 nM, respectively.

With `COCCN1CCc2ccc(Nc3ncc(Cl)c(N[C@@H]4CCCC[C@H]4NS(=O)(=O)C4CC4)n3)cc2CC1` [Example 454, Cyclopropanesulfonic acid ((1R,2R)-2-{5-chloro-2-[3-(2-methoxy-ethyl)-2,3,4,5-tetrahydro-1H-benzo[d]azepin-7-ylamino]-pyrimidin-4-ylamino}-cyclohexyl)-amide], the IC50 in experiment [1] (setting [7]) lay within 100 to 1000 nM; in experiment [2] (setting [8]) it was 1000 to 10000 nM.

On to `COc1cc2c(cc1Nc1ncc(Cl)c(Nc3ccccc3-c3ncccc3C)n1)CCN(CC(=O)N(C)C)CC2` [Example 1000, 2-(7-{5-Chloro-4-[2-(3-methyl-pyridin-2-yl)-phenylamino]-pyrimidin-2-ylamino}-8-methoxy-1,2,4,5-tetrahydro-benzo[d]azepin-3-yl)-N,N-dimethyl-acetamide], for which the results for the IC50 in experiment [1] (setting [5]) and in experiment [2] (setting [6]) were less than 100 nM and more than 10000 nM, respectively.

Take `COCCN1CCc2ccc(Nc3ncc(Cl)c(Nc4ccccc4C(=O)NC4CC4)n3)cc2CC1` [Example 344, 2-{5-Chloro-2-[3-(2-methoxy-ethyl)-2,3,4,5-tetrahydro-1H-benzo[d]azepin-7-ylamino]-pyrimidin-4-ylamino}-N-cyclopropyl-benzamide]: the figures for the IC50 in experiment [1] (setting [7]) and in experiment [2] (setting [8]) were less than 100 nM and 100 to 1000 nM, respectively.

`CNC(=O)c1ccccc1Nc1nc(Nc2ccc3c(c2)C2CC3CN(CCOC)C2)ncc1Cl` (centres unmarked) [Example 161, 2-{5-Chloro-2-[10-(2-methoxy-ethyl)-10-aza-tricyclo[6.3.1.0*2,7*]dodeca-2,4,6-trien-4-ylamino]-pyrimidin-4-ylamino}-N-methyl-benzamide]: the IC50 was less than 100 nM in experiment [1] (setting [7]) and 100 to 1000 nM in experiment [2] (setting [8]).

For the molecule `CCN1C(=O)CCCc2cc(Nc3ncc(Cl)c(N[C@@H]4CCCC[C@H]4N(C)S(C)(=O)=O)n3)c(OC)cc21` [Example 1678, N-{(1R,2R)-2-[5-Chloro-2-(1-ethyl-8-methoxy-2-oxo-2,3,4,5-tetrahydro-1H-benzo[b]azepin-7-ylamino)-pyrimidin-4-ylamino]-cyclohexyl}-N-methyl-methanesulfonamide], the values for the IC50 in experiment [1] (setting [9]) and in experiment [2] (setting [10]) were less than 100 nM and 1000 to 10000 nM, respectively.

Regarding `C#CCNC(=O)c1cccc(F)c1Nc1nc(Nc2ccc3c(c2)N(C(C)C)CCCC3(C)C)ncc1Cl` [Example 1627, 2-[5-Chloro-2-(1-isopropyl-5,5-dimethyl-2,3,4,5-tetrahydro-1H-benzo[b]azepin-8-ylamino)-pyrimidin-4-ylamino]-3-fluoro-N-prop-2-ynyl-benzamide], the IC50 in experiment [1] (setting [9]) and in experiment [2] (setting [10]) was 1000 to 10000 nM each time.

On to `CC(=O)N[C@@H]1CCCC[C@H]1Nc1nc(Nc2ccc3c(c2)C(C)(C)CCC(=O)N3)ncc1Cl` [Example 395, N-{(1R,2R)-2-[5-Chloro-2-(5,5-dimethyl-2-oxo-2,3,4,5-tetrahydro-1H-benzo[b]azepin-7-ylamino)-pyrimidin-4-ylamino]-cyclohexyl}-acetamide], for which the IC50 was less than 100 nM in experiment [1] (setting [7]) and 100 to 1000 nM in experiment [2] (setting [8]).

For `CCNC(=O)c1ccccc1Nc1nc(Nc2cc3c(cc2OC)CC(=O)NCC3)ncc1Cl` [Example 265, 2-[5-Chloro-2-(8-methoxy-2-oxo-2,3,4,5-tetrahydro-1H-benzo[d]azepin-7-ylamino)-pyrimidin-4-ylamino]-N-ethyl-benzamide], the results for the IC50 in experiment [1] (setting [7]) and in experiment [2] (setting [8]) were less than 100 nM and 100 to 1000 nM, respectively.

Regarding `CC(C)S(=O)(=O)c1ccccc1Nc1nc(Nc2ccc3c(c2)CCC(N2CCOCC2)CC3)ncc1Cl` (centres unmarked) [Example 1036, 5-Chloro-N*2*-(7-morpholin-4-yl-6,7,8,9-tetrahydro-5H-benzocyclohepten-2-yl)-N*4*-[2-(propane-2-sulfonyl)-phenyl]-pyrimidine-2,4-diamine], the IC50 in experiment [1] (setting [3]) was less than 100 nM; in experiment [2] (setting [4]), 100 to 1000 nM.

On to `CNC(=O)[C@@H]1CCC[C@@H]1Nc1nc(Nc2cc3c(cc2OC)CCN(CC(=O)N(C)C)CC3)ncc1Cl` (relative stereo) [Example 375, cis-2-[5-Chloro-2-(3-dimethylcarbamoylmethyl-8-methoxy-2,3,4,5-tetrahydro-1H-benzo[d]azepin-7-ylamino)-pyrimidin-4-ylamino]-cyclopentanecarboxylic acid methylamide], for which the IC50 in experiment [1] (setting [7]) was less than 100 nM; in experiment [2] (setting [8]), more than 10000 nM.

Turning to `C#CCNC(=O)c1cccc(F)c1Nc1nc(Nc2ccc3c(c2)NC(=O)C(NC(C)=O)CC3(C)C)ncc1Cl` (centres unmarked) [Example 1290, 2-[2-(3-Acetylamino-5,5-dimethyl-2-oxo-2,3,4,5-tetrahydro-1H-1-benzazepin-8-ylamino)-5-chloro-pyrimidin-4-ylamino]-3-fluoro-N-prop-2-ynyl-benzamide], the IC50 in experiment [1] (setting [3]) was 1000 to 10000 nM; in experiment [2] (setting [4]), less than 100 nM.

Consider `CNC(=O)c1scc(C)c1Nc1nc(Nc2ccc3c(c2)CC(=O)N(C)CC3)ncc1Cl` [Example 1816, 3-[5-Chloro-2-(3-methyl-4-oxo-2,3,4,5-tetrahydro-1H-benzo[d]azepin-7-ylamino)-pyrimidin-4-ylamino]-4-methyl-thiophene-2-carboxylic acid methylamide], for which the IC50 is less than 100 nM in experiment [1] (setting [9]) and 100 to 1000 nM in experiment [2] (setting [10]).

In the case of `CCOC(=O)c1ccccc1Nc1nc(Nc2ccc3c(c2)CCN(CCOC)CC3)ncc1Cl` [Example 1395, {5-Chloro-2-[3-(2-methoxy-ethyl)-2,3,4,5-tetrahydro-1H-benzo[d]azepin-7-ylamino]-pyrimidin-4-ylamino}-benzoic acid ethyl ester], the IC50 in experiment [1] (setting [3]) was less than 100 nM; in experiment [2] (setting [4]), 100 to 1000 nM.

Turning to `CC1(C)CCC(=O)Nc2ccc(Nc3ncc(Cl)c(NC4C5C=CC(C5)C4C(N)=O)n3)cc21` (stereo not drawn) [Example 394, (2-exo,3-exo)-3-[5-Chloro-2-(5,5-dimethyl-2-oxo-2,3,4,5-tetrahydro-1H-benzo[b]azepin-7-ylamino)-pyrimidin-4-ylamino]-bicyclo[2.2.1]hept-5-ene-2-carboxylic acid amide], the IC50 was less than 100 nM in experiment [1] (setting [7]) and 100 to 1000 nM in experiment [2] (setting [8]).

`CNC(=O)[C@@H]1CCC[C@@H]1Nc1nc(Nc2ccc3c(c2)CCN(CCOC)CC3)ncc1Cl` (relative stereo) [Example 372, cis-2-{5-Chloro-2-[3-(2-methoxy-ethyl)-2,3,4,5-tetrahydro-1H-benzo[d]azepin-7-ylamino]-pyrimidin-4-ylamino}-cyclopentanecarboxylic acid methylamide]: the IC50 in experiment [1] (setting [7]) is less than 100 nM; in experiment [2] (setting [8]) it was 100 to 1000 nM.

For the molecule `COc1cc2c(cc1Nc1ncc(Cl)c(Nc3ccccc3S(=O)(=O)C(C)C)n1)CCN(CC(=O)N1CCCC1)CC2` [Example 1158, 2-(7-{5-Chloro-4-[2-(propane-2-sulfonyl)-phenylamino]-pyrimidin-2-ylamino}-8-methoxy-1,2,4,5-tetrahydro-benzo[d]azepin-3-yl)-1-pyrrolidin-1-yl-ethanone], the results for the IC50 in experiment [1] (setting [3]) and in experiment [2] (setting [4]) were less than 100 nM and 1000 to 10000 nM, respectively.

With `COc1cc2c(cc1Nc1ncc(Cl)c(Nc3ccccc3S(=O)(=O)N(C)C)n1)CCN(CC(=O)N1CCCC1)CC2` [Example 1157, 2-{5-Chloro-2-[8-methoxy-3-(2-oxo-2-pyrrolidin-1-yl-ethyl)-2,3,4,5-tetrahydro-1H-benzo[d]azepin-7-ylamino]-pyrimidin-4-ylamino}-N,N-dimethyl-benzenesulfonamide], the IC50 in experiment [1] (setting [3]) is less than 100 nM; in experiment [2] (setting [4]), 1000 to 10000 nM.

On to `CNC(=O)c1ccccc1Nc1nc(Nc2ccc3c(c2)CC(=O)NCC3)ncc1Cl` [Example 1811, 2-[5-Chloro-2-(4-oxo-2,3,4,5-tetrahydro-1H-benzo[d]azepin-7-ylamino)-pyrimidin-4-ylamino]-N-methylbenzamide], for which the IC50 in experiment [1] (setting [9]) and in experiment [2] (setting [10]) was less than 100 nM each time.

With `CCN1C(=O)CCCc2c1ccc(Nc1ncc(Cl)c(N[C@H]3[C@@H](C(N)=O)[C@@H]4C=C[C@H]3C4)n1)c2OC` [Example 133, (1S,2S,3R,4R)-3-[5-Chloro-2-(1-ethyl-6-methoxy-2-oxo-2,3,4,5-tetrahydro-1H-benzo[b]azepin-7-ylamino)-pyrimidin-4-ylamino]-bicyclo[2.2.1]hept-5-ene-2-carboxylic acid amide], the IC50 is less than 100 nM in experiment [1] (setting [7]) and more than 10000 nM in experiment [2] (setting [8]).

With `CNC(=O)c1ccccc1Nc1nc(Nc2cccc3c2C(=O)N(C)CCN3C)ncc1Cl` [Example 213, 2-[5-Chloro-2-(1,4-dimethyl-5-oxo-2,3,4,5-tetrahydro-1H-benzo[e][1,4]diazepin-6-ylamino)-pyrimidin-4-ylamino]-N-methyl-benzamide], the IC50 in experiment [1] (setting [7]) was 1000 to 10000 nM; in experiment [2] (setting [8]), more than 10000 nM.
